Measured values as given in PMC4774911, “Biochemical Screening of Five Protein Kinases from Plasmodium falciparum against 14,000 Cell-Active Compounds” (PLoS ONE, 2016).
Where “and” joins values, the source holds several entries; their conditions need not be identical. Equal entries are not always repeated.

What was measured:
Assay in all cases: biochemical
Parameters in all cases: endogenous in cells; host or cells: K562 cell extract; species or system K562 (extract); replicate k of n = 2 (each experiment ID is one independent experiment; two experiment IDs per compound)
Conditions in all cases: read-out: KDapp
MAP3K1 = MAP3K1 (Homo sapiens, UniProt Q13233)
Chain of MAP3K1 (Q13233 whole entry): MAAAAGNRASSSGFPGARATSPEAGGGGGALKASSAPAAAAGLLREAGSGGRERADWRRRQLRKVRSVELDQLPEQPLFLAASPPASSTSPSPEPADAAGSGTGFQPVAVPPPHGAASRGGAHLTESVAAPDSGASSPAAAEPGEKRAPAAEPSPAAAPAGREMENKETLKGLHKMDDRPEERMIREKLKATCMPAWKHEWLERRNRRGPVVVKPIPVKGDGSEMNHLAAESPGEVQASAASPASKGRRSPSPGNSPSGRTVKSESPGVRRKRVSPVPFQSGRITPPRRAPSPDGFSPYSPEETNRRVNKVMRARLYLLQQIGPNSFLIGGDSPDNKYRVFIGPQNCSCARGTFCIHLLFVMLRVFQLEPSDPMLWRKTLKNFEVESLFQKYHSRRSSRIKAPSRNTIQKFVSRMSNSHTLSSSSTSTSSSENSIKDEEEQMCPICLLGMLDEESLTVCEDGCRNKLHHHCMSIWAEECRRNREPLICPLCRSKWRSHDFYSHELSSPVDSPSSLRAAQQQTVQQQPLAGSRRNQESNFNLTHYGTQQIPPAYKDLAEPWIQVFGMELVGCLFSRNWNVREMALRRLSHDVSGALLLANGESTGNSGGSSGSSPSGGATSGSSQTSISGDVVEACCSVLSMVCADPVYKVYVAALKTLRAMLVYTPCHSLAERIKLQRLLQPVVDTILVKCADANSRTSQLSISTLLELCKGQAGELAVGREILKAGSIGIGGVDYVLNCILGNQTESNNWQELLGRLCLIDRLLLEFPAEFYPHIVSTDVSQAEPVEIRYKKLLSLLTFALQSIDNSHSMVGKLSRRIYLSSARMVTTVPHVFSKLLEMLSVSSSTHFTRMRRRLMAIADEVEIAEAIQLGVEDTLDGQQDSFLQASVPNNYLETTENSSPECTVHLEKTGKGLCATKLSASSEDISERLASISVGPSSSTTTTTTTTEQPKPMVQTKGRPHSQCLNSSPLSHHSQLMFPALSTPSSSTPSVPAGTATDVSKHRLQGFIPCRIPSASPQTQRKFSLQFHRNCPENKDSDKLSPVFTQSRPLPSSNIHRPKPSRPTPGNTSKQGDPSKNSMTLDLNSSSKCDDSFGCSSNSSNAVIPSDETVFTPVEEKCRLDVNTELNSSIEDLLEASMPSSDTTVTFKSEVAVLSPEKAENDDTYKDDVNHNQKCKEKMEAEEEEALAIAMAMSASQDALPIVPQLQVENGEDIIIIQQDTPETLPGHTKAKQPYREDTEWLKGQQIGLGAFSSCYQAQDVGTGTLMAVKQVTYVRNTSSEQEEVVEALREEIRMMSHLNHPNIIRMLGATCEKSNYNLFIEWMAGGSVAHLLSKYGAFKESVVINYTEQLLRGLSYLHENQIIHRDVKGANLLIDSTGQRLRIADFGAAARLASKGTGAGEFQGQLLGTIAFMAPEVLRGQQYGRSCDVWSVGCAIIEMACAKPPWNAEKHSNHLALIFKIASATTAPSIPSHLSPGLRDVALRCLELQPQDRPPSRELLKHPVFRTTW

NLK = biological target: T1, NLK (Homo sapiens, UniProt Q9UBE8)
T1 sequence (Q9UBE8 1-527): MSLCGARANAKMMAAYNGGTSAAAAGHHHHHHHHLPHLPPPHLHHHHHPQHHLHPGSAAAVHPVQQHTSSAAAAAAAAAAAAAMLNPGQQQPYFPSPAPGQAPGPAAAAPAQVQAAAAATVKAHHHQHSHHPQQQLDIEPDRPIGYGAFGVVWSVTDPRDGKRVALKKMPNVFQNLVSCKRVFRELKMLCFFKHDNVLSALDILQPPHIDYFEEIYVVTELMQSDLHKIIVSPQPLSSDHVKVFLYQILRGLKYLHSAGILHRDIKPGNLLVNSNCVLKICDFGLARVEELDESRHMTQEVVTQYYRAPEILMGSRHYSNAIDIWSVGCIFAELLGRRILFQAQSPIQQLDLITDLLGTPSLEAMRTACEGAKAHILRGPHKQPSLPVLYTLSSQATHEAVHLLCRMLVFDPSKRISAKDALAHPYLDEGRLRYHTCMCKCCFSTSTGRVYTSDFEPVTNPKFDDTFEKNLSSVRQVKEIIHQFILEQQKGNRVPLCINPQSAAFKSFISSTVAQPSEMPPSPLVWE

BMP2K = BMP2K (Homo sapiens, UniProt Q9NSY1)
Chain of BMP2K (Q9NSY1 whole entry): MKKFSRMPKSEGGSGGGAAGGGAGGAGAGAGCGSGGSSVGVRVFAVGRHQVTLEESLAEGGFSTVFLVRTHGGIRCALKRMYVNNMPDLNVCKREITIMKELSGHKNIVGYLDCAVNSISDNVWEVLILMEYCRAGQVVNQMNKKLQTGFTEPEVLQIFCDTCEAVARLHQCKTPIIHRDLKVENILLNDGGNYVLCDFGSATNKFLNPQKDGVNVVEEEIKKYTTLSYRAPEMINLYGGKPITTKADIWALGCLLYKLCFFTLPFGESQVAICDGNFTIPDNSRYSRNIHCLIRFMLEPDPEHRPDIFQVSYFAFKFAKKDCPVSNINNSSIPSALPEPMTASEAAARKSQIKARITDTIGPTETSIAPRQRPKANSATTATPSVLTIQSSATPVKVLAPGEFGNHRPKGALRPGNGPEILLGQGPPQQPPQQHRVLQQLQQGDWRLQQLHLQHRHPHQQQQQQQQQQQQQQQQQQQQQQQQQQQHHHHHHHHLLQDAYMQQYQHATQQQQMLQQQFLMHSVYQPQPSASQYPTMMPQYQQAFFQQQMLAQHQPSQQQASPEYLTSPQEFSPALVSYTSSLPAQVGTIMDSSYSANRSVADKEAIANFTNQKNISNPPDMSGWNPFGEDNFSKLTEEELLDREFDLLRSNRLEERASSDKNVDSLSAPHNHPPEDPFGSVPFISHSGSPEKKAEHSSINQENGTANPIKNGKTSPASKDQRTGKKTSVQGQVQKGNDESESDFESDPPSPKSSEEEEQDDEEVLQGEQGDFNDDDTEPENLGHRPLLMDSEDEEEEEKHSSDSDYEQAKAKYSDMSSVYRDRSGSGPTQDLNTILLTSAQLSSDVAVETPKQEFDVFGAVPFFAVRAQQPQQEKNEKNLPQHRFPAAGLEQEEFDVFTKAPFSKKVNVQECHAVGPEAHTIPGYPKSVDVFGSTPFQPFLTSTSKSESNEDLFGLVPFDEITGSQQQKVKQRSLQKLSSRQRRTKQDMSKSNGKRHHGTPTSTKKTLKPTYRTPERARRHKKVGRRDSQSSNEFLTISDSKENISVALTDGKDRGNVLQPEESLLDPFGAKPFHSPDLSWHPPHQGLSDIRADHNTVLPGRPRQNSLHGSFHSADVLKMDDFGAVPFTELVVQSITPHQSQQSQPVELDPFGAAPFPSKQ

MAP3K6 = biological target: T2, MAP3K6 (Homo sapiens, UniProt O95382)
T2 sequence (O95382 1-1288): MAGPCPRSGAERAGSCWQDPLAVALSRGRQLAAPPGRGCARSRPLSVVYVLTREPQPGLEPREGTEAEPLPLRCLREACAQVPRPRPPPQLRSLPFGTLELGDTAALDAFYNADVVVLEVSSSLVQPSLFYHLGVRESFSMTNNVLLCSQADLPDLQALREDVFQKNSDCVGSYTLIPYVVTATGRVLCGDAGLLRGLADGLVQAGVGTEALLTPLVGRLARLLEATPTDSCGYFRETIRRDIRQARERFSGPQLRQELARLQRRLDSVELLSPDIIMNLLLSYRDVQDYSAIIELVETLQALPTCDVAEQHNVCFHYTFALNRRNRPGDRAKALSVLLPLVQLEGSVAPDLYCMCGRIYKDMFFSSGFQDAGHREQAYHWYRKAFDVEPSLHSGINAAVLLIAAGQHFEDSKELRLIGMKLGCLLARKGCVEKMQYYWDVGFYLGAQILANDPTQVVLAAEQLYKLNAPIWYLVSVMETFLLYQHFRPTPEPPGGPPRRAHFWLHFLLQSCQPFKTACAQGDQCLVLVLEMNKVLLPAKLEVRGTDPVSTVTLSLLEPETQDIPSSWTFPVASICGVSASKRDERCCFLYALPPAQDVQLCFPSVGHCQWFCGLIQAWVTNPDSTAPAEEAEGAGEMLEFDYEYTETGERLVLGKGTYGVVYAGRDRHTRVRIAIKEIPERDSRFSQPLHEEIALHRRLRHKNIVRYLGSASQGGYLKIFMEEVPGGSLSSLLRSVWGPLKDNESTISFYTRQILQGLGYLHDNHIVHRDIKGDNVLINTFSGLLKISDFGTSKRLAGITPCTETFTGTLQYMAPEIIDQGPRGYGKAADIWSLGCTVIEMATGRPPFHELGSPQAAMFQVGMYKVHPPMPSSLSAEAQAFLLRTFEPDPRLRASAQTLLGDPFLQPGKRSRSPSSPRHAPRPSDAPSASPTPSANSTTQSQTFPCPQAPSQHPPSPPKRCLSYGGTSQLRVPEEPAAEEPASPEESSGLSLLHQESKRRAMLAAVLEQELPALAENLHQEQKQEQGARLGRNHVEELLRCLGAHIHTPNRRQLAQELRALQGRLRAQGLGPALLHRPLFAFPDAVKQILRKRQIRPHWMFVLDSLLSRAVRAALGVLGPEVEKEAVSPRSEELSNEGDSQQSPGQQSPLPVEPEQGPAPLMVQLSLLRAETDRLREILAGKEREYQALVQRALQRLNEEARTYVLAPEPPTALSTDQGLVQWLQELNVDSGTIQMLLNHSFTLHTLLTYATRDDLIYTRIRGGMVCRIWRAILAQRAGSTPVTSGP

TGFBR1 = biological target: T3, TGFBR1 (Homo sapiens, UniProt P36897)
T3 sequence (P36897 1-503): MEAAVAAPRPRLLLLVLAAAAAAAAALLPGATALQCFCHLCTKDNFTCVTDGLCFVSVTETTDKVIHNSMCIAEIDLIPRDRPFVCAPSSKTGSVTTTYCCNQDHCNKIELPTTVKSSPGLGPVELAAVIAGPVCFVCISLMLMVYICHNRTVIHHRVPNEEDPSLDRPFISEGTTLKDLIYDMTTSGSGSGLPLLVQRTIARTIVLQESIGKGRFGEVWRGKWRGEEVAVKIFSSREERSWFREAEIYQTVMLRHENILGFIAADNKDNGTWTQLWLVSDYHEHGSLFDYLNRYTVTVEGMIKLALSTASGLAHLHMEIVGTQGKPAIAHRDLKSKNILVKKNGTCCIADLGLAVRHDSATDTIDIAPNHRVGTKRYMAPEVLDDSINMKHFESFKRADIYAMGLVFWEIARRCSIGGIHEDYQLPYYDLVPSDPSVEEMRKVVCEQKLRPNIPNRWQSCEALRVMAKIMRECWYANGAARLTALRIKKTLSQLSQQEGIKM

SMILES | Kd (MAP3K1) [nM] | Kd (NLK) | Kd (BMP2K) | Kd (MAP3K6) | Kd (TGFBR1)
CN1CCN(c2ccc(Nc3ncc(C#N)c(Nc4ccccc4C(N)=O)n3)cc2)CC1.Cl [TCMDC-134116] | 681 | 950 nM and 890 nM | 112 nM and 92.8 nM | 994 nM and 870 nM | –
Cl.NCC1(c2nc(-c3ccc(Cl)c(O)c3)c(-c3ccncc3)[nH]2)CCCCC1 [TCMDC-141154] | – | – | – | – | 59.6 nM and 87.9 nM
